Test results: USRE47689E1, “Compounds for treating spinal muscular atrophy” (PTC Therapeutics, Inc., priority 2011, dated 2019)

Legend:
[1] = system: SMN2 minigene (full length SMN2 minigene mRNA containing SMN2 exon 7); assay: SMN2 minigene mRNA splicing RT-qPCR assay in cultured cells; assay type: cell-based, human; conditions: HEK293H cells stably transfected with SMN2-A minigene, 24 hours, 7-point concentration curve, 1.5-fold relative to vehicle-treated cells; for EC (1.5-fold): Homo sapiens, HEK293-H, read-out: EC1.5x for production of full length SMN2 mRNA
Experimental: The reverse transcription-quantitative PCR-based (RT-qPCR) assay is used to quantify the level of the full length SMN2 minigene mRNA containing SMN2 exon 7 in a HEK293H cell line stably transfected with said minigene and treated with a test compound.
Protocol. HEK293H cells stably transfected with the SMN2-A minigene construct described above (10,000 cells/well) are seeded in 200 μL of cell culture medium (DMEM plus 10% FBS, with 200 μg/mL hygromycin) in 96-well flat-bottom plates and the plate is immediately swirled to ensure proper dispersal of cells, forming an even monolayer of cells. Cells are allowed to attach for at least 4-6 hours. […] A solution of test compound (1 μL, 200× in DMSO) is added to each cell-containing well and the plate is incubated for 24 hours in a cell culture incubator (37° C., 5% CO2, 100% relative humidity). 2 replicates are prepared for each test compound concentration. The cells are then lysed in Cells-To-Ct lysis buffer and the lysate is stored at −80° C.
The combination of these three oligonucleotides detects only SMN1 or SMN2 minigenes (RT-qPCR) and will not detect endogenous SMN1 or SMN2 genes.
The SMN forward and reverse primers are used at final concentrations of 0.4 μM.
The SMN2-minigene GAPDH mix (15 μL total volume) is prepared by combining 7.5 μL of 2×RT-PCR buffer, 0.4 μL of 25×RT-PCR enzyme mix, 0.75 μL of 20×GAPDH primer-probe mix, 4.0075 μL of water, 2 μL of 10-fold diluted cell lysate, 0.06 μL of 100 μM SMN forward primer, 0.06 μL of 100 μM SMN reverse primer, and 0.225 μL of 100 μM SMN probe.
PCR is carried out at the following temperatures for the indicated time: Step 1: 48° C. (15 min); Step 2: 95° C. (10 min); Step 3: 95° C. (15 sec); Step 4: 60° C. (1 min); then repeat Steps 3 and 4 for a total of 40 cycles.
Each reaction mixture contains both SMN2-A minigene and GAPDH primers/probe sets (multiplex design), allowing simultaneous measurement of the levels of two transcripts.
Two SMN spliced products are generated from the SMN2 minigene. The first spliced product containing exon 7, corresponding to full length SMN2 mRNA, is called SMN2mini FL. The second one lacking exon 7 is called SMN2mini Δ7.
The amplification efficiency E is calculated from the slope of the amplification curve for SMN2mini FL and GAPDH individually. The abundances of SMN2mini FL and GAPDH are then calculated as […], where Ct is the threshold value for each amplicon. The abundance of SMN2mini FL is normalized to GAPDH abundance. The normalized SMN2mini FL abundance from test compound-treated samples is then divided by normalized SMN2mini FL abundance from vehicle-treated cells to determine the level of SMN2 FL mRNA relative to vehicle control.
An EC1.5x for production of full length SMN2 mRNA between >3 μM and ≤30 μM is indicated by one star (*), an EC1.5x between >1 μM and ≤3 μM is indicated by two stars (**), an EC1.5x between >0.3 μM and ≤1 μM is indicated by three stars (***), an EC1.5x between >0.1 μM and ≤0.3 μM is indicated by four stars (****) and an EC1.5x≤0.1 μM is indicated by five stars (*****).

Smn protein = Smn protein assay in cultured cells (SMN HTRF); assay type: cell-based, human; conditions: 48 hours; for maximum fold (Fold) increase of Smn protein: SMA patient fibroblast cells, 7-point concentration data, fold increase relative to vehicle control (SMN HTRF); for EC1.5x (concentration giving 1.5-fold Smn protein increase): SMA Type 1 patient fibroblast cells (GM03813), 7-point concentration curve, SMN HTRF, concentration producing 1.5 times Smn protein vs DMSO vehicle control, read-out: EC1.5x for Smn protein expression
Experimental: The SMN HTRF (homogeneous time resolved fluorescence) assay is used to quantify the level of Smn protein in SMA patient fibroblast cells treated with test compounds.
Protocol. Cells are thawed and cultured in DMEM-10% FBS for 72 hours. Cells are trypsinized, counted and resuspended to a concentration of 25,000 cells/mL in DMEM-10% FBS. […] 1 μL of test compound solution is transferred to cell-containing wells and cells are incubated for 48 hours in a cell culture incubator (37° C., 5% CO2, 100% relative humidity). Triplicate samples are set up for each test compound concentration. After 48 hours, the supernatant is removed from the wells and 25 μL of the RIPA lysis buffer, containing protease inhibitors, is added to the wells and incubated with shaking at room temperature for 1 hour. 25 μL of the diluent is added and then 35 μL of the resulting lysate is transferred to a 384-well plate, where each well contains 5 μL of the antibody solution (1:100 dilution of anti-SMN d2 and anti-SMN kryptate in SMN reconstitution buffer). The plate is centrifuged for 1 minute to bring the solution to the bottom of the wells, then incubated overnight at room temperature. Fluorescence for each well of the plate at 665 nm and 620 nm is measured on an EnVision multilabel plate reader (Perkin-Elmer).
The normalized fluorescence signal is calculated for each sample, Blank and vehicle control well by dividing the signal at 665 nm by the signal at 620 nm. Normalizing the signal accounts for possible fluorescence quenching due to the matrix effect of the lysate. The ΔF value (a measurement of Smn protein abundance) for each sample well is calculated by subtracting the normalized average fluorescence for the Blank control wells from the normalized fluorescence for each sample well and then dividing this difference by the normalized average fluorescence for the Blank control wells. The resulting ΔF value for each sample well represents the Smn protein abundance from test compound-treated samples. The ΔF value for each sample well is divided by the ΔF value for the vehicle control wells to calculate the fold increase in Smn protein abundance relative to the vehicle control.
An EC1.5x for Smn protein expression between >3 μM and ≤10 μM is indicated by one star (*), an EC1.5x between >1 and ≤3 μM is indicated by two stars (**), an EC1.5x between >0.3 μM and ≤1 μM is indicated by three stars (***) and an EC1.5x≤0.3 μM is indicated by four stars (****).

Compound: CSc1nccn2cc(-c3cc4ccc(N5CCN(C)CC5)cc4oc3=O)nc12 [Compound 399, 7-(4-methylpiperazin-1-yl)-3-[8-(methylsulfanyl)imidazo[1,2-a]pyrazin-2-yl]-2H-chromen-2-one]
- EC (1.5-fold) [1]: 3 to 30 µM
- maximum fold (Fold) increase of Smn protein (Smn protein): * (maximum fold increase of ≤1.2)

Compound: CSc1nccn2cc(-c3cc4ccc(N5CCCN(C)CC5)cc4oc3=O)nc12 [Compound 401, 7-(4-methyl-1,4-diazepan-1-yl)-3-[8-(methylsulfanyl)imidazo[1,2-a]pyrazin-2-yl]-2H-chromen-2-one]
- EC (1.5-fold) [1]: 1 to 3 µM
- maximum fold (Fold) increase of Smn protein (Smn protein): * (maximum fold increase of ≤1.2)

Compound: COc1ccc(-c2cc3c(F)cc(N4CCN(C)CC4)cc3oc2=O)cc1OC [Compound 405, 3-(3,4-dimethoxyphenyl)-5-fluoro-7-(4-methylpiperazin-1-yl)-2H-chromen-2-one]
- EC (1.5-fold) [1]: 3 to 30 µM
- maximum fold (Fold) increase of Smn protein (Smn protein): ** (fold increase between >1.2 and ≤1.35)

Compound: CN(C)[C@H]1[C@@H]2CN(c3ccc4cc(-c5cn6cccnc6n5)c(=O)oc4c3)C[C@@H]21 [Compound 439, 7-[(1R,5S,6s)-6-(dimethylamino)-3-azabicyclo[3.1.0]hex-3-yl]-3-(imidazo[1,2-a]pyrimidin-2-yl)-2H-chromen-2-one]
- EC1.5x for production of full length SMN2 mRNA [1]: * (between >3 μM and ≤30 μM)
- maximum fold (Fold) increase of Smn protein (Smn protein): ** (fold increase between >1.2 and ≤1.35)

Compound: CN1CCCN(c2ccc3cc(-c4cn5ccncc5n4)c(=O)oc3c2)CC1 [Compound 455, 3-(imidazo[1,2-a]pyrazin-2-yl)-7-(4-methyl-1,4-diazepan-1-yl)-2H-chromen-2-one]
- EC (1.5-fold) [1]: < 0.1 µM
- EC1.5x (concentration giving 1.5-fold Smn protein increase) (Smn protein): 300 to 1000 nM
- maximum fold (Fold) increase of Smn protein (Smn protein): **** (fold increase between >1.5 and ≤1.65)

Compound: COc1ccc(-c2cc3ccc(N4CCNC[C@@H]4C)cc3oc2=O)cc1OC [Compound 472, 3-(3,4-dimethoxyphenyl)-7-[(2S)-2-methylpiperazin-1-yl]-2H-chromen-2-one]
- EC (1.5-fold) [1]: 1 to 3 µM
- maximum fold (Fold) increase of Smn protein (Smn protein): * (maximum fold increase of ≤1.2)

Compound: Cc1cn2cc(-c3cc4ccc(N5CCNCC5)cc4oc3=O)nc2c(C)n1 [Compound 515, 3-(6,8-dimethylimidazo[1,2-a]pyrazin-2-yl)-7-(piperazin-1-yl)-2H-chromen-2-one]
- EC (1.5-fold) [1]: < 0.1 µM
- EC1.5x (concentration giving 1.5-fold Smn protein increase) (Smn protein): < 300 nM
- maximum fold (Fold) increase of Smn protein (Smn protein): ***** (fold increase >1.65)

Compound: Cc1cn2cc(-c3cc4ccc(N5CCN(C)CC5)cc4oc3=O)nc2c(C)n1 [Compound 516, 3-(6,8-dimethylimidazo[1,2-a]pyrazin-2-yl)-7-(4-methylpiperazin-1-yl)-2H-chromen-2-one]
- EC (1.5-fold) [1]: < 0.1 µM
- EC1.5x (concentration giving 1.5-fold Smn protein increase) (Smn protein): < 300 nM
- maximum fold (Fold) increase of Smn protein (Smn protein): ***** (fold increase >1.65)

Compound: Cc1cn2cc(-c3cc4ccc(N5C[C@@H](C)N[C@@H](C)C5)cc4oc3=O)nc2c(C)n1 [Compound 517, 3-(6,8-dimethylimidazo[1,2-a]pyrazin-2-yl)-7-[(3R,5S)-3,5-dimethylpiperazin-1-yl]-2H-chromen-2-one]
- EC (1.5-fold) [1]: < 0.1 µM
- EC1.5x (concentration giving 1.5-fold Smn protein increase) (Smn protein): < 300 nM
- maximum fold (Fold) increase of Smn protein (Smn protein): ***** (fold increase >1.65)

Compound: Cc1cn2cc(-c3cc4ccc(N5CCN[C@@H](C)C5)cc4oc3=O)nc2c(C)n1 [Compound 537, 3-(6,8-dimethylimidazo[1,2-a]pyrazin-2-yl)-7-[(3S)-3-methylpiperazin-1-yl]-2H-chromen-2-one]
- EC (1.5-fold) [1]: < 0.1 µM
- EC1.5x (concentration giving 1.5-fold Smn protein increase) (Smn protein): < 300 nM
- maximum fold (Fold) increase of Smn protein (Smn protein): ***** (fold increase >1.65)

Compound: Cc1nccn2cc(-c3cc4ccc(N5CCN[C@H](C)C5)cc4oc3=O)nc12 [Compound 559, 3-(8-methylimidazo[1,2-a]pyrazin-2-yl)-7-[(3R)-3-methylpiperazin-1-yl]-2H-chromen-2-one]
- EC (1.5-fold) [1]: 0.3 to 1 µM
- maximum fold (Fold) increase of Smn protein (Smn protein): *** (fold increase between >1.35 and ≤1.5)

Compound: C[C@H]1CN(c2ccc3cc(-c4cc5ccccn5c4)c(=O)oc3c2)CCN1 [Compound 565, 3-(indolizin-2-yl)-7-[(3S)-3-methylpiperazin-1-yl]-2H-chromen-2-one]
- EC (1.5-fold) [1]: 1 to 3 µM
- maximum fold (Fold) increase of Smn protein (Smn protein): * (maximum fold increase of ≤1.2)

Compound: Cc1cn2cc(-c3cc4ccc(N5CCN(C)CC5)cc4oc3=O)nc2cn1 [Compound 568, 3-(6-methylimidazo[1,2-a]pyrazin-2-yl)-7-(4-methylpiperazin-1-yl)-2H-chromen-2-one]
- EC (1.5-fold) [1]: < 0.1 µM
- EC1.5x (concentration giving 1.5-fold Smn protein increase) (Smn protein): < 300 nM
- maximum fold (Fold) increase of Smn protein (Smn protein): ***** (fold increase >1.65)

Compound: Cc1cn2cc(-c3cc4ccc(N5CCN[C@@H](C)C5)cc4oc3=O)nc2cn1 [Compound 569, 3-(6-methylimidazo[1,2-a]pyrazin-2-yl)-7-[(3S)-3-methylpiperazin-1-yl]-2H-chromen-2-one]
- EC (1.5-fold) [1]: < 0.1 µM
- EC1.5x (concentration giving 1.5-fold Smn protein increase) (Smn protein): < 300 nM
- maximum fold (Fold) increase of Smn protein (Smn protein): ***** (fold increase >1.65)

Compound: Cc1cn2cc(-c3cc4ccc(N5CCN[C@H](C)C5)cc4oc3=O)nc2cn1 [Compound 570, 3-(6-methylimidazo[1,2-a]pyrazin-2-yl)-7-[(3R)-3-methylpiperazin-1-yl]-2H-chromen-2-one]
- EC (1.5-fold) [1]: < 0.1 µM
- EC1.5x (concentration giving 1.5-fold Smn protein increase) (Smn protein): < 300 nM
- maximum fold (Fold) increase of Smn protein (Smn protein): ***** (fold increase >1.65)

Compound: Cc1nccn2cc(-c3cc4ccc(N5CCN[C@@H](C)C5)cc4oc3=O)nc12 [Compound 573, 3-(8-methylimidazo[1,2-a]pyrazin-2-yl)-7-[(3S)-3-methylpiperazin-1-yl]-2H-chromen-2-one]
- EC (1.5-fold) [1]: 0.3 to 1 µM
- EC1.5x (concentration giving 1.5-fold Smn protein increase) (Smn protein): < 300 nM
- maximum fold (Fold) increase of Smn protein (Smn protein): **** (fold increase between >1.5 and ≤1.65)
